The results in this text go back to ChEMBL document CHEMBL4266028, “Salviachinensines A-F, Antiproliferative Phenolic Derivatives from the Chinese Medicinal Plant Salvia chinensis” (J Nat Prod, 2018).

Active and inactive are the calls of the source. No cut-off for these calls is given here.

Holding throughout (assay type): functional, cell-based
Assay [1] concerns MOLM-13. The experiment in a line: Antiproliferative activity against human MOLM13 cells by Cell-Titer Glo assay.
Assay [2] concerns MOLM-14. The experiment in a line: Antiproliferative activity against human MOLM14 cells by Cell-Titer Glo assay.
Assay [3] deals with MV4-11. The experiment in a line: Antiproliferative activity against human MV4-11 cells by Cell-Titer Glo assay.
Assay [4] deals with MOLM-13. Nature of the assay: Cell cycle arrest in human MOLM13 cells assessed as accumulation at G0/G1 phase at 5 uM by flow cytometry.
For assay [5], the system named is MOLM-13. Nature of the assay: Induction of apoptosis in human MOLM13 cells assessed as increase in PARP cleavage at 5 uM after 24 hrs by Western blot analysis.
Assay [6] deals with MOLM-13. Nature of the assay: Induction of apoptosis in human MOLM13 cells assessed as increase in caspase-3 cleavage at 5 uM after 24 hrs by Western blot analysis.

Take `COC(=O)[C@H](O)Cc1ccc2c(c1)O[C@H]([C@H](OC)c1ccc(O)c(O)c1)O2`: the half-maximal inhibitory concentration (IC50) (as a rule, the midpoint of a concentration-inhibition curve) in assay [1] was 5.2 µM; in assay [2] (Homo sapiens, MOLM-14), more than 10 µM; in assay [3], more than 10 µM.

`O=C(O)/C=C/c1ccc(O)c(O)c1` [CAFFEIC ACID]: the IC50 was 6.4 µM in assay [1]; more than 10 µM in assay [2] (Homo sapiens, MOLM-14); more than 10 µM in assay [3].

Turning to `Nc1ccc(-c2ccc3ncc4ccc(=O)n(-c5cccc(C(F)(F)F)c5)c4c3c2)cn1`, the IC50 in assay [1] was less than 0.001 µM; in assay [2] (Homo sapiens, MOLM-14), less than 0.001 µM; in assay [3] it was less than 0.001 µM.

As for `O=C(/C=C/c1ccc(O)c(O)c1)O[C@H](Cc1ccc(O)c(O)c1)C(=O)O` [ROSMARINIC ACID], the 50% inhibitory concentration (IC50) was 2.9 µM in assay [1]; 7.1 µM in assay [2] (Homo sapiens, MOLM-14); more than 10 µM in assay [3].

For the compound `COC(=O)[C@@H](Cc1ccc(O)c(O)c1)OC(=O)/C=C/c1ccc(O)c(O)c1/C=C/c1ccc(O)c(O)c1`, the IC50 in assay [1] was 6.7 µM; in assay [2] (Homo sapiens, MOLM-14) it was more than 10 µM; in assay [3], more than 10 µM.

Regarding `COC(=O)[C@@H](Cc1ccc(O)c(O)c1)OC(=O)/C=C/c1ccc(O)c(O)c1` [METHYL ROSMARINATE], the half-inhibitory concentration (IC50) in assay [1] is 8.4 µM; in assay [2] (Homo sapiens, MOLM-14), more than 10 µM; in assay [3], more than 10 µM.

For `O=C(/C=C/c1ccc(O)c(O)c1/C=C/c1ccc(O)c(O)c1)O[C@H](Cc1ccc(O)c(O)c1)C(=O)O` [SALVIANOLIC ACID A], the half-maximal inhibitory concentration (IC50) was 2.5 µM in assay [1], 6.2 µM in assay [2] (molm-14) and more than 10 µM in assay [3].

Consider `COC(=O)[C@H](O)Cc1ccc(O)c(O)c1`, for which the IC50 was 7.5 µM in assay [1]; more than 10 µM in assay [2] (Homo sapiens, MOLM-14); more than 10 µM in assay [3].

As for `O=C1C[C@H]2c3cc(O)c(O)cc3[C@H](c3ccc(O)c(O)c3)[C@H]2O1`, the IC50 in assay [1] is 2.3 µM; in assay [2] (Homo sapiens, MOLM-14), 7.1 µM; in assay [3], more than 10 µM. Also, the outcome in assay [4], in assay [5] and in assay [6] was Active.
